From patent publication US20230365592A1 (Agios Pharmaceuticals, Inc., priority 2022, published 2023) come the findings set out here.

The target in one assay is T1, human PAH with the R408W mutation (Homo sapiens, UniProt P00439, R408W).
T1 construct: expressed in transfected cells
T1 sequence (P00439 1-452 R408W): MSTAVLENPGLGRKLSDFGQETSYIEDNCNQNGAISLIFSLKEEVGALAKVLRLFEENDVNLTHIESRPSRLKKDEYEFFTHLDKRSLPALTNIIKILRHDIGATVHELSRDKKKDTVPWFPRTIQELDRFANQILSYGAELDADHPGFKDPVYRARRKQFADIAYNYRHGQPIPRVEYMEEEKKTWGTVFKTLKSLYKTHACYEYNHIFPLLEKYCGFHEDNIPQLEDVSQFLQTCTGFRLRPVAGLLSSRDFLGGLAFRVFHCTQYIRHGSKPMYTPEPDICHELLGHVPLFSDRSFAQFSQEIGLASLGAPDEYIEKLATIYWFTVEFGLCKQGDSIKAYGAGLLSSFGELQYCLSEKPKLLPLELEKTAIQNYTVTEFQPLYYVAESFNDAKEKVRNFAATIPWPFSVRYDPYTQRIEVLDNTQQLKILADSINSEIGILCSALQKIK
Kind of assay: Cell Based Phenylalanine Flux Assay.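 Also: after compound treatment, cells received sepiapterin plus isotope-labelled Phenylalanine for 4 hours, then labelled Tyrosine in the medium was quantified, 10-point 2-fold dilution series run in duplicate.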 The following applies: A375 cells expressing R408W PAH; 24 hrs with compound, then 20 µM sepiapterin and 800 µM 13C9,15N-Phenylalanine for 4 hours; 13C-Tyrosine by LC-MS; average where tested multiple times; read-out: AC50.
`Cc1cccn2nc(C3c4nc[nH]c4CCN3C(=O)c3cc(C(C)(C)C)nn3C)cc12` (stereo not drawn): the AC50 is > 5 µM.
The same measure, in the same setting: to `O=C(c1cnn2cc(N3CCOCC3)ccc12)N1CCc2[nH]cnc2C1c1cc2ccccn2n1` (stereo not drawn) belongs 1 to 5 µM; to `CN(C)C(=O)c1nnc(N2CCc3[nH]cnc3C2c2cc3ccccn3n2)o1` (stereo not drawn), 1 to 5 µM.
Same read-out and setting: to `Cc1cccn2nc(C3c4nc[nH]c4CCN3C(=O)c3ocnc3C(F)F)cc12` (stereo not drawn) belongs 1 to 5 µM; to `O=C(c1ncco1)N1CCc2[nH]cnc2C1c1cc2c(F)cccn2n1` (stereo not drawn), 1 to 5 µM; to `Cc1cccc2cc(C3c4nc[nH]c4CCN3c3nnc(C4CC4)o3)nn12` (stereo not drawn), 1 to 5 µM.
With `COc1cccn2nc([C@H]3c4nc[nH]c4CCN3C(=O)c3cc(C(C)(C)C)nn3C)cc12` (single isomer, unassigned), the AC50 was > 5 µM.

Still in this assay, the particulars now being: A375 cells expressing human PAH R408W; 24 hrs compound incubation; 13C-Tyrosine by LC-MS; average where tested multiple times; read-out: AC50.
With `Cc1cccc2cc([C@H]3c4nc[nH]c4CCN3c3nnc(-c4ccc(F)cc4)o3)nn12` [Example 2011, (R)-2-(4-fluorophenyl)-5-(4-(7-methylpyrazolo[1,5-a]pyridin-2-yl)-1,4,6,7-tetrahydro-5H-imidazo[4,5-c]pyridin-5-yl)-1,3,4-oxadiazole], the half-maximal activity concentration (AC50) is > 5 µM.
The same measure, in the same setting: under `Cc1c[nH]nc1-c1nnc(C(=O)N2CCc3[nH]cnc3[C@H]2c2cc3c(C)cccn3n2)o1` [Example 2292, (S)-(5-(4-methyl-1H-pyrazol-3-yl)-1,3,4-oxadiazol-2-yl)(4-(4-methylpyrazolo[1,5-a]pyridin-2-yl)-1,4,6,7-tetrahydro-5H-imidazo[4,5-c]pyridin-5-yl)methanone] stands < 0.5 µM.
Turning to `O=C(c1oc(-c2ccccn2)nc1C1CC1)N1CCc2[nH]cnc2[C@@H]1c1cc2c(C(F)(F)F)cccn2n1` [Example 2125, (R)-(4-cyclopropyl-2-(pyridin-2-yl)oxazol-5-yl)(4-(4-(trifluoromethyl)pyrazolo[1,5-a]pyridin-2-yl)-1,4,6,7-tetrahydro-5H-imidazo[4,5-c]pyridin-5-yl)methanone], the AC50 was 1 to 5 µM.
Still for that read-out and setting: to `Cc1cccn2nc([C@@H]3c4nc[nH]c4CCN3c3cnccn3)cc12` [Example 1805, (S)-4-(4-methylpyrazolo[1,5-a]pyridin-2-yl)-5-(pyrazin-2-yl)-4,5,6,7-tetrahydro-1H-imidazo[4,5-c]pyridine] belongs < 0.5 µM; to `FC(F)Oc1cccn2nc([C@H]3c4nc[nH]c4CCN3c3ncc(C(F)(F)F)cn3)cc12` [Example 2257, (R)-4-(4-(difluoromethoxy)pyrazolo[1,5-a]pyridin-2-yl)-5-(5-(trifluoromethyl)pyrimidin-2-yl)-4,5,6,7-tetrahydro-1H-imidazo[4,5-c]pyridine], > 5 µM; to `Cn1cc(-c2nnc(C(=O)N3CCc4[nH]cnc4[C@H]3c3cc4c(Br)cccn4n3)o2)cn1` [Example 1868, (S)-(4-(4-bromopyrazolo[1,5-a]pyridin-2-yl)1,4,6,7-tetrahydro-5H-imidazo[4,5-c]pyridin-5-yl)(5-(1-methyl-1H-pyrazol-4-yl)-1,3,4-oxadiazol-2-yl)methanone], < 0.5 µM.
For `Cc1cccn2nc([C@@H]3c4nc[nH]c4CCN3c3nnc(C4CCC4)o3)cc12` [Example 2481, (S)-2-cyclobutyl-5-(4-(4-methylpyrazolo[1,5-a]pyridin-2-yl)-6,7-dihydro-1H-imidazo[4,5-c]pyridin-5(4H)-yl)-1,3,4-oxadiazole], the AC50 was in the range of 1 to 5 µM.

Still in this assay, the particulars now being: A375 cells expressing human R408W PAH; 24 hrs compound incubation; 13C-Tyrosine by LC-MS; average where tested multiple times; read-out: AC50.
Turning to `CC1(c2nnc(C(=O)N3CCc4[nH]cnc4[C@H]3c3cc4c(C(F)(F)F)cccn4n3)o2)CC1` [Example 1325, (S)-(5-(1-methylcyclopropyl)-1,3,4-oxadiazol-2-yl)(4-(4-(trifluoromethyl)pyrazolo[1,5-a]pyridin-2-yl)-6,7-dihydro-1H-imidazo[4,5-c]pyridin-5(4H)-yl)methanone], the AC50 is < 0.5 µM.
With `O=C(c1cnn2cc(C3CC3)ccc12)N1CCc2[nH]cnc2[C@H]1c1cc2c(Cl)cccn2n1` [Example 1768, (S)-(4-(4-chloropyrazolo[1,5-a]pyridin-2-yl)-6,7-dihydro-1H-imidazo[4,5-c]pyridin-5(4H)-yl)(6-cyclopropylpyrazolo[1,5-a]pyridin-3-yl)methanone], the concentration at half-maximal activity (AC50) is < 0.5 µM.
The same measure, in the same setting: to `CC(C)(O)c1nc(C(F)F)c(C(=O)N2CCc3[nH]cnc3[C@@H]2c2cc3c(C(F)(F)F)cccn3n2)o1` [Example 811, (R)-(4-(difluoromethyl)-2-(2-hydroxypropan-2-yl)oxazol-5-yl)(4-(4-(trifluoromethyl)pyrazolo[1,5-a]pyridin-2-yl)-6,7-dihydro-1H-imidazo[4,5-c]pyridin-5(4H)-yl)methanone] belongs 1 to 5 µM.
For `Cc1ccc(-c2nnc(C(=O)N3CCc4[nH]cnc4[C@@H]3c3cc4c(C)cccn4n3)o2)nc1` [Example 870, (R)-(4-(4-methylpyrazolo[1,5-a]pyridin-2-yl)-6,7-dihydro-1H-imidazo[4,5-c]pyridin-5(4H)-yl)(5-(5-methylpyridin-2-yl)-1,3,4-oxadiazol-2-yl)methanone], the AC50 was > 5 µM.
Still for that read-out and setting: to `COc1cccn2nc([C@H]3c4nc[nH]c4CCN3C(=O)c3nnc(C4CC4)o3)cc12` [Example 1169, (R)-(5-cyclopropyl-1,3,4-oxadiazol-2-yl)(4-(4-methoxypyrazolo[1,5-a]pyridin-2-yl)6,7-dihydro-1H-imidazo[4,5-c]pyridin-5(4H)-yl)methanone] belongs > 5 µM; to `Cc1cccc2cc([C@H]3c4nc[nH]c4CCN3C(=O)c3nnc(C4CCC4)o3)nn12` [Example 1563, (R)-(5-cyclobutyl-1,3,4-oxadiazol-2-yl)(4-(7-methylpyrazolo[1,5-a]pyridin-2-yl)-6,7-dihydro-1H-imidazo[4,5-c]pyridin-5(4H)-yl)methanone], 1 to 5 µM.
With `Cc1nn(C)cc1-c1nnc(C(=O)N2CCc3[nH]cnc3[C@@H]2c2cc3c(C(F)F)cccn3n2)o1` [Example 1467, (R)-(4-(4-(difluoromethyl)pyrazolo[1,5-a]pyridin-2-yl)-6,7-dihydro-1H-imidazo[4,5-c]pyridin-5(4H)-yl)(5-(1,3-dimethyl-1H-pyrazol-4-yl)-1,3,4-oxadiazol-2-yl)methanone], the AC50 is 1 to 5 µM.
As for `O=C(c1nnc(-c2cnn(C(F)F)c2)o1)N1CCc2[nH]cnc2[C@@H]1c1cc2c(Cl)cccn2n1` [Example 1135, (R)-(4-(4-chloropyrazolo[1,5-a]pyridin-2-yl)-6,7-dihydro-1H-imidazo[4,5-c]pyridin-5(4H)-yl)(5-(1-(difluoromethyl)-1H-pyrazol-4-yl)-1,3,4-oxadiazol-2-yl)methanone], the AC50 lay in the range of 1 to 5 µM.
As to `Cn1nc(Cl)nc1C(=O)N1CCc2[nH]cnc2[C@H]1c1cc2c(F)cccn2n1` [Example 762, (S)-(3-chloro-1-methyl-1H-1,2,4-triazol-5-yl)(4-(4-fluoropyrazolo[1,5-a]pyridin-2-yl)-6,7-dihydro-1H-imidazo[4,5-c]pyridin-5(4H)-yl)methanone], the half-maximal activity concentration (AC50) is < 0.5 µM.
For `CC1(c2nnc(C(=O)N3CCc4[nH]cnc4[C@H]3c3cc4c(Cl)cccn4n3)o2)CC1` [Example 1321, (S)-(4-(4-chloropyrazolo[1,5-a]pyridin-2-yl)-6,7-dihydro-1H-imidazo[4,5-c]pyridin-5(4H)-yl)(5-(1-methylcyclopropyl)-1,3,4-oxadiazol-2-yl)methanone], the AC50 was < 0.5 µM.

By AC50 is commonly meant the concentration giving half of the maximal activity seen.
